The test system of one assay is NOS2 protein expression. The assay can be described thus: NOS2 protein expression in LPS-treated macrophages (Western blot). It is filed as cell-based, C57BL/6J mice. To be noted: 50 µM, LPS 24 h. The procedure: Figure 4 Effects of the fluorinated benzofuran and dihydrobenzofuran on COX-2 and NOS2 protein expressions. COX-2 and NOS2 protein expressions were assessed in macrophages incubated with only 10 µM for compounds 1, 7, and 9, and 50 µM for the other compounds, for 30 min prior to the addition of 10 ng/mL LPS for 24 h. β-actin was used as a loading control, and densitometric analysis was performed using ImageJ software (NIH, MA). Data are expressed as fold of LPS-treated macrophages and represented as mean ± SEM of 4 different experiments; * p < 0.05 versus LPS (one-way ANOVA followed by Dunnett’s test).
Macrophages were incubated with the compounds for 30 min prior to the addition of 10 ng/mL LPS for 24 h. Protein levels for COX-2 and NOS2 were detected in LPS-stimulated macrophages. As previously described, 10 µg of total protein was assessed. The primary antibodies were developed and characterized as previously described: for COX-2, mouse monoclonal antibody anti-COX-2 (clone COX-214, 1/5000); for NOS2, rabbit polyclonal antibody anti-NOS2 (dilution1/2000 [33]). Antibodies anti-phospho-NF-κB (3033S), phospho-IκBα (9246S), and total IκBα (4814S) were from Cell Signaling Technologies (Danvers, MA, USA). Total NF-κB C-20 (sc-372) was from Santa Cruz Biotechnologies (Dallas, TX, USA), and mouse β-actin (dilution 1/10,000) (Sigma-Aldrich, A5441). Clarity™ western ECL substrate (Bio-Rad Laboratories 10-5061) was used according to the manufacturer’s instructions to reveal positive bands visualized using Bio-Rad ChemiDoc. For Bcl-2 and cleaved PARP-1, HCT116 cells were plated in 6-well plates (200,000 cells per well) for 24 h, and treated with compounds 1 and 2 at 10, 25, and 50 µM for 72 h. Supernatants and cells were collected and lysed using RIPA lysis buffer containing inhibitors of protease. Western blot of Bcl-2 and cleaved PARP-1 was performed using 25 µg of total protein with a rabbit polyclonal antibody anti-Bcl-2 (1/500) (Santa Cruz Biotechnology, sc-492), rabbit polyclonal antibody anti-PARP-1 (1/1000) (Santa Cruz Biotechnology, sc-7150), and mouse anti-β-actin (dilution 1/10,000) (Sigma-Aldrich, A5441).
Densitometric analyses were performed using ImageJ software (NIH, MA, USA). The ratio of the different analyzed bands to β-actin was determined and data are represented as fold change compared to the LPS-treated cells. Percentage of viable cells for proliferation assay was determined as percentage to control (non-treated cells). For TUNEL assay, apoptotic cells were quantified, and results were expressed as percentage to positive cells (cleaved DNA) compared to control (non-treated cells). Statistical analysis was performed using one-way ANOVA, followed by Dunnett’s multiple comparisons test using GraphPad Prism software. […]
(In western blotting, separated proteins are transferred to a membrane and probed.)

For assay [1], the system named is zymosan-induced air pouch inflammation. The assay can be described thus: Subcutaneous zymosan-induced air pouch model of inflammation. The following applies: 50 nmol per pouch co-injected with 1% zymosan, 24 h. It is filed as in vivo, C57BL/6J mice. As to the method: Figure 5 Effect of fluorinated benzofuran and dihydrobenzofuran on inflammation in the zymosan-treated sterile air pouch model in mice. (A) A timeline for the zymosan-induced inflammation experiments of the air pouch model in C57/BL6 mice. The pouch was formed on day 1 and refilled on day 4 with sterile air. Mice were injected at day 6 with 1% zymosan (w/v in saline), or 0.5 mL of saline for control mice. An amount of 50 nmol of compounds 2, 3, 5, and 6, or vehicle, were co-injected into the air pouch. At 24 h post-treatment, exudates were collected. (B) Recruited cells in the pouch and PGE2 production. (C) Gene expressions of inflammatory enzymes Ptgs2 and Nos2, proinflammatory cytokines Il1α and Il1β, and chemokines Ccl3 and Ccl4. Data correspond to the mean ± SEM (n = 6–8 mice per group); * p < 0.05 compared to the zymosan-treated cells (one-way ANOVA followed by Dunnett’s test).
C57BL/6J female mice (8-week-old, 20–25 g) were kept at 5 per cage on a 12 h light–dark cycle with cotton cocoon as enrichment in temperature- and humidity-controlled rooms. Mice were provided with food and water ad libitum, and food intake and body weight were monitored throughout the study period. Approval for use of animals was obtained from the IACUC (16-11-393). Dorsal air pouches were created in mice as previously described. Six days after the initial injection of sterile air, 0.5 mL of saline containing 100 µM of benzofuran compounds 2, 3, 5, or 6 (50 nmol per pouch) or 0.2% DMSO as vehicle was co-injected in the pouch with 0.5 mL of 0.9% saline (for the control group) or 0.5 mL of 1% zymosan (w/v, for zymosan and zymosan + compound) (Sigma-Aldrich, 400140). At 24 h after treatment, the animals were sacrificed by CO2 inhalation and the air pouch washed, the exudates collected, and the cell number determined. As previously reported, the main subtype of leukocytes present in the air pouch were neutrophils (75%) and monocytes–macrophages (12–15%), as determined by selective flow cytometry. The concentrations of PGE2, CCL2, and IL-6 and the gene expression were assessed as described previously.
For gene expression, RT-PCR was performed as described previously. Briefly, cell pellets obtained by centrifugation of air pouch exudates at 300× g for 5 min at 4 °C were suspended in TriPure (Sigma Aldrich 11667165001). An amount of 2 μg of total RNA was reverse-transcribed using iScript cDNA synthesis kit (Bio-Rad Laboratories, 1708891). RT-PCR was carried out on CFX384 cycler using iTaq Universal SYBR Green Supermix kit (Bio-Rad Laboratories, 1725121) and the primers obtained from TIB Molbiol (Berlin, Germany). Oligonucleotide sequences were according to the references, except for Ptgs2 and Nos2, which were as follows: Ptgs2 (F): […]; Ptgs2 (R): […]; Nos2 (F): […]; Nos2 (R): […]. Gene expression was calculated using ^ΔΔCT method relative to the housekeeping gene 18S.

Consider `C=C(C)c1ccc2oc(CC(=O)O)c(F)c2c1` [Compound 6], for which the “effect on LPS-dependent NOS2 protein expression” value (“effect” for short) in the assay on NOS2 protein expression was “no effect”. Besides, in assay [1], the “CCL2 formation in air pouch, ELISA” value is recorded as “inhibited”; the “IL-6 production in air pouch, ELISA” value is reported as “inhibited”; the “PGE2 levels in air pouch exudates” value is recorded as “inhibited”; the “number of cells of the air pouch exudates” value (shortened to “number”) was “significantly reduced”. In addition, in assay [1] (RT-PCR), the “expression of Ccl4 in air pouch cells” value is “modestly inhibited”.
As to `O=C(O)/C=C1\Oc2ccc(Br)cc2C1(F)F` [Compound 3], the “effect” value in the assay on NOS2 protein expression was “inhibition”. Besides, in assay [1], the “CCL2 formation in air pouch, ELISA” value was “inhibited”; the “PGE2 levels in air pouch exudates” value is given as “inhibited”; the “number” value was “significantly reduced”. Besides, the “expression of Ccl4 in air pouch cells” value in assay [1] (RT-PCR) is “modestly inhibited”.
With `O=C(O)Cc1oc2ccc(-c3ccccc3)cc2c1F` [Compound 5], in the assay with NOS2 protein expression, the “effect” value is reported as “no effect”. Moreover, in assay [1], the “CCL2 formation in air pouch, ELISA” value is on record as “inhibited” and the “number” value is listed as “significantly reduced”.
In the case of `O=C(O)/C=C1/Oc2ccc(Br)cc2C1(F)F` [Compound 2], the “effect” value in the assay on NOS2 protein expression is “inhibition”. In assay [1], the “IL-6 production in air pouch, ELISA” value is on record as “inhibited”; the “PGE2 levels in air pouch exudates” value is “inhibited”; the “number” value is listed as “significantly reduced”. The “gene expression of proinflammatory genes (Il1a, Il1b, Ccl3, Ccl4, Ptgs2, Nos2) in air pouch cells” value in assay [1] (RT-PCR) was “strong inhibition”.

(Values after PMC10299677, “Fluorinated Benzofuran and Dihydrobenzofuran as Anti-Inflammatory and Potential Anticancer Agents” (International Journal of Molecular Sciences, 2023).)
